How the values were obtained:
NMDA receptor [1] = experiment: Anti-NMDA activity: prevention of convulsions and death caused by NMDA injected into the lateral ventricle of the brain; type: in vivo; settings: mice, i.p. 40 minutes before NMDA 0.1 μg into the lateral ventricle, probit analysis
Protocol: The experiment was conducted in white non-inbred male mice of 20–24 g of weight. A solution of the test agent in 0.2 ml of 5% aqueous dimethylsulfoxide was injected intraperitoneally 40 minutes before the injection of NMDA into the lateral vehicle of the brain. For the mice that had been prepared beforehand for the experiment a skin flap on the head of each mouse was removed under ether anestesia and a hole was bored in the skull by a fine drill. NMDA (0.1 μg) in a volume of 1.4 μl was injected with a microsyringe. The microsyringe needle was immersed to a depth of 2.5 mm. After the operation, the wound was treated with a 2% novocaine solution. […] The accuracy of NMDA injection was monitored by injection of methylene blue. Two to 4 hours after the operation, the mice were used for a pharmacological experiment.
The animals inoculated with a saline solution were used as control.
Each dose of the agent was tested in a croup of 6–8 animals. The ED50 value (the dose of the agent preventing the development of convulsions and the death of 50% of the animals) was determined by a probit-analysis method (Litchfild J. T., Wicoxon F. J.—Pharmacol. Exp. Therap., 1949, v. 96, p. 99–114).

NMDA receptor [2] = settings: cited from earlier work

SMILES	ED50 (dose preventing the development of convulsions and the death of 50% of the animals) (NMDA receptor [1])	further results
NC(CCCP(=O)(O)O)C(=O)O (stereo not drawn) [AP-5, 2-amino-5-phosphonovaleric acid]	190 ± 20 mg/kg	side neurotoxic effect (disturbance of coordination of movement, sedative effect) (NMDA receptor [2]; in the doses that produce the anti-NMDA effect): side neurotoxic effect; ED50, anti-NMDA effect (NMDA receptor [2]; literature value): 190 mg/kg
CN1CCc2[nH]c3ccccc3c2C1 [No. 1, 2-methyl-2,3,4,5-tetrahydro-1H-pyrido[4,3-b]indole]	30 ± 4 mg/kg	–
Cc1ccc2[nH]c3c(c2c1)CN(C)CC3 [No. 2, 2,8-dimethyl-2,3,4,5-tetrahydro-1H-pyrido[4,3-b]indole]	–	ED50 (dose preventing the development of convulsions and the death of 50% of the animals) (NMDA receptor [1]; listed as 2): 16 ± 4 mg/kg
Cc1ccc2[nH]c3c(c2c1)CN(C)CC3 [No. 3, 2,8-dimethyl-2,3,4,5-tetrahydro-1H-pyrido[4,3-b]indole]	–	ED50 (dose preventing the development of convulsions and the death of 50% of the animals) (NMDA receptor [1]; listed as 3): ~40 mg/kg
CN1CCc2[nH]c3ccc(Br)cc3c2C1 [No. 5, 2-methyl-8-bromo-2,3,4,5-tetrahydro-1H-pyrido[4,3-b]indole]	29 ± 5 mg/kg	–
CCN1CCc2[nH]c3ccccc3c2C1 [No. 6, 2-ethyl-2,3,4,5-tetrahydro-1H-pyrido[4,3-b]indole]	45 ± 6 mg/kg	–
c1ccc(CN2CCc3[nH]c4ccccc4c3C2)cc1 [No. 7, 2-benzyl-2,3,4,5-tetrahydro-1H-pyrido[4,3-b]indole]	43 ± 5 mg/kg	–
Cc1ccc2c(c1)c1c(n2Cc2ccccc2)CCN(C)C1 [No. 8, 2,8-dimethyl-5-benzyl-2,3,4,5-tetrahydro-1H-pyrido[4,3-b]indole]	45 ± 5 mg/kg	–
Cc1ccc(CCn2c3c(c4ccccc42)CN(C)CC3)cn1 [No. 9, 2-methyl-5-[2-(6-methyl-3-pyridyl)ethyl]-2,3,4,5-tetrahydro-1H-pyrido[4,3-b]indole]	22 ± 4 mg/kg	–
Cl.Nc1c2c(nc3ccccc13)CCCC2 [Tacrine, 9-amino-1,2,3,4-tetrahydroacridine hydrochloride, reference compound]	not active	–

— patent publication US7071206B2, “Agents for treating neurodegenerative disorders” (Medivation, Inc., priority 1995, dated 2006)
